Assay results as given in US10626095B2, “Cyanotriazole compounds” (OTSUKA PHARMACEUTICAL CO., LTD., priority 2013, dated 2020).

Assays:
[1] = test system: Zucker Diabetic Fatty (ZDF) rat; assay: Meal load test in type 2 diabetic model rats (postprandial blood glucose); assay type: in vivo; set-up: unit not given here; conditions: ZDF rats fasted overnight, oral 10 mg/kg in 5% Arabia gum, blood glucose one hour after meal loading (50 kcal/kg)
Method: Effects on Type 2 Diabetes: Meal Load Test
To evaluate whether a cyanotriazol compound improves diabetes or not, especially related to postprandial blood glucose, meal load test was performed using one of type 2 diabetic model rats, the Zucker Diabetic Fatty (ZDF) rat (Charles river, Japan). About 24 animals fasted overnight (17 h) were taken blood samples from the tail veins, and measured blood glucose levels (Pre BG) and body weights (BW). Proper animals were selected and divided into […] (n=6) based on the Pre BG and BW using SAS Statistical Analysis System (SAS institute Japan Ltd. Release 9.1). The compounds to be tested (10 or 30 mg/kg body weight in 5% Arabia gum) or Arabia gum solution only (vehicle group) were orally administrated via gavage two hours prior to or just before meal loading (50 kcal/kg body weight). The meal suspension was prepared by mixing purified AIN-93G (Norsan Corp, Yokohama, Japan) and distilled water (2:3, w/v). One-hour after meal loading, blood glucose (BG1h) of each animal was measured. Effectiveness of each compound was shown by ? BG1h (BG1h difference between compound group and vehicle group). Although a set of 24 animals was used several times (from 13 weeks to 21 weeks of age), at least a one-week interval was placed from one to another test.

[2] = test system: NaCT-CHO (CHO cells stably expressing human NaCT); assay: Assay of the citric acid cycle activation ([1,5-14C]-citric acid, diffusion of [14C]-CO2); assay type: cell-based; conditions: 1 hour incubation at 37° C. with [1,5-14C]-citric acid
Outline: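 NaCT-CHO cells (pME-CHO empty-vector cells for non-specific counts) were incubated 1 h at 37 °C in Na+-containing HEPES-Tris pH 7.4 with compound plus an equal volume of 0.4 mM [1,5-14C]-citric acid solution. Residual cell radioactivity was counted, [14C]-CO2 diffusion was taken as (Total−R)/(Total−NS)×100%, and EC50 was derived by regression.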

SMILES	BG1h (BG1h difference between compound group and vehicle group) [1]	EC50 [2] [nM]
N#Cc1[nH]nnc1-c1ccc(/C=C/c2cccc(C(F)(F)F)c2)o1 [Example 137, 5-{5-[(E)-2-(3-trifluoromethyl-phenyl)-vinyl]-furan-2-yl}-3H-[1,2,3]triazole-4-carbonitrile]	−162.6	570
N#Cc1[nH]nnc1-c1ccc2ccn(CCCC(F)(F)F)c2c1 [Example 146]	−94.9	410
N#Cc1[nH]nnc1-c1cc2ccc(-c3ccc(F)cc3)cc2o1 [Example 147, 5-[6-(4-fluoro-phenyl)-benzofuran-2-yl]-3H-[1,2,3]triazole-4-carbonitrile]	−80.5	1660
N#Cc1[nH]nnc1-c1cccc(-c2cc(F)cc(C(F)(F)F)c2)c1 [Example 220, 5-(5′-fluoro-3′-trifluoromethyl-biphenyl-3-yl)-3H-[1,2,3]triazole-4-carbonitrile]	−85.6	350
N#Cc1[nH]nnc1-c1cc(Cl)cc(-c2cc(C(F)(F)F)cc(C(F)(F)F)c2)c1 [Example 275, 5-(5-chloro-3′,5′-bis-trifluoromethyl-biphenyl-3-yl)-3H-[1,2,3]triazole-4-carbonitrile]	−83.3	1040
N#Cc1[nH]nnc1-c1cc(Cl)cc(-c2ccc(OC(F)(F)F)c(F)c2)c1 [Example 276, 5-(5-chloro-3′-fluoro-4′-trifluoromethoxy-biphenyl-3-yl)-3H-[1,2,3]triazole-4-carbonitrile]	−71.4	850
N#Cc1[nH]nnc1-c1cc(OC(F)(F)F)cc(-c2ccc(OC(F)(F)F)c(F)c2)c1 [Example 298, 5-(3′-fluoro-5,4′-bis-trifluoromethoxy-biphenyl-3-yl)-3H-[1,2,3]triazole-4-carbonitrile]	−62.8	740
N#Cc1[nH]nnc1-c1cccc(OCc2ccc(C(F)(F)F)c(C(F)(F)F)c2)c1 [Example 423, 5-[3-(3,4-bis-trifluoromethyl-benzyloxy)-phenyl]-3H-[1,2,3]triazole-4-carbonitrile]	−87.6	920
N#Cc1[nH]nnc1-c1cc(OCc2cc(C(F)(F)F)ccc2C(F)(F)F)cc(OC(F)(F)F)c1 [Example 504, 5-[3-(2,5-bis-trifluoromethyl-benzyloxy)-5-trifluoromethoxy-phenyl]-3H-[1,2,3]triazole-4-carbonitrile]	−69.1	1470
N#Cc1[nH]nnc1-c1cc(Cl)cc(/C=C/c2cc(C(F)(F)F)cc(C(F)(F)F)c2)c1 [Example 610, 5-{3-[(E)-2-(3,5-bis-trifluoromethyl-phenyl)-vinyl]-5-chloro-phenyl}-3H-[1,2,3]triazole-4-carbonitrile]	−86.8	1740
N#Cc1[nH]nnc1-c1cccc(/C=C/c2cccc(C(F)(F)F)c2)c1 [Example 613, 5-{3-[(E)-2-(3-trifluoromethyl-phenyl)-vinyl]-phenyl}-3H-[1,2,3]triazole-4-carbonitrile]	−138.8	430
N#Cc1[nH]nnc1-c1cccc(/C=C/c2ccc(C(F)(F)F)cc2)c1 [Example 617, 5-{3-[(E)-2-(4-trifluoromethyl-phenyl)-vinyl]-phenyl}-3H-[1,2,3]triazole-4-carbonitrile]	−113.3	480
N#Cc1[nH]nnc1-c1cc(/C=C/c2cccc(C(F)(F)F)c2)cc(C(F)(F)F)c1 [Example 620, 5-{3-trifluoromethyl-5-[(E)-2-(3-trifluoromethyl-phenyl)-vinyl]-phenyl}-3H-[1,2,3]triazole-4-carbonitrile]	−159.7	1450
N#Cc1[nH]nnc1-c1cc(Cl)cc(/C=C/c2ccc(F)cc2)c1 [Example 623, 5-{3-chloro-5-[(E)-2-(4-fluoro-phenyl)-vinyl]-phenyl}-3H-[1,2,3]triazole-4-carbonitrile]	−111.2	690
Cc1cc(/C=C/c2ccc(F)cc2)cc(-c2nn[nH]c2C#N)c1 [Example 627, 5-{3-[(E)-2-(4-fluoro-phenyl)-vinyl]-5-methyl-phenyl}-3H-[1,2,3]triazole-4-carbonitrile]	−85.2	740
N#Cc1[nH]nnc1-c1cc(/C=C/c2ccc(F)cc2)cc(OC(F)(F)F)c1 [Example 639, 5-{3-[(E)-2-(4-fluoro-phenyl)-vinyl]-5-trifluoromethoxy-phenyl}-3H-[1,2,3]triazole-4-carbonitrile]	−58.5	1210
N#Cc1[nH]nnc1-c1cccc(/C=C/c2ccc(F)cc2)c1 [Example 640, 5-{3-[(E)-2-(4-fluoro-phenyl)-vinyl]-phenyl}-3H-[1,2,3]triazole-4-carbonitrile]	−62.0	670
CCOc1cc(/C=C/c2cccc(C(F)(F)F)c2)cc(-c2nn[nH]c2C#N)c1 [Example 644, 5-{3-ethoxy-5-[(E)-2-(3-trifluoromethyl-phenyl)-vinyl]-phenyl}-3H-[1,2,3]triazole-4-carbonitrile]	−131.0	2350
N#Cc1[nH]nnc1-c1cc(/C=C/c2ccc(F)cc2F)cc(C(F)(F)F)c1 [Example 645, 5-{3-[(E)-2-(2,4-difluoro-phenyl)-vinyl]-5-trifluoromethyl-phenyl}-3H-[1,2,3]triazole-4-carbonitrile]	−121.6	1090
N#Cc1[nH]nnc1-c1cccc(/C=C/c2ccc(F)cc2F)c1 [Example 646, 5-{3-[(E)-2-(2,4-difluoro-phenyl)-vinyl]-phenyl}-3H-[1,2,3]triazole-4-carbonitrile]	−89.3	620
N#Cc1[nH]nnc1-c1cc(Cl)cc(/C=C/c2cccc(OC(F)(F)F)c2)c1 [Example 649, 5-{3-chloro-5-[(E)-2-(3-trifluoromethoxy-phenyl)-vinyl]-phenyl}-3H-[1,2,3]triazole-4-carbonitrile]	−99.4	2470
COc1cc(/C=C/c2cccc(C(F)(F)F)c2)cc(-c2nn[nH]c2C#N)c1 [Example 657, 5-{3-methoxy-5-[(E)-2-(3-trifluoromethyl-phenyl)-vinyl]-phenyl}-3H-[1,2,3]triazole-4-carbonitrile]	−120.5	1160
N#Cc1[nH]nnc1-c1cccc(/C=C/c2cc(F)cc(C(F)(F)F)c2)c1 [Example 659, 5-{3-[(E)-2-(3-fluoro-5-trifluoromethyl-phenyl)-vinyl]-phenyl}-3H-[1,2,3]triazole-4-carbonitrile]	−161.2	810
N#Cc1[nH]nnc1-c1cccc(/C=C/c2ccc(F)c(C(F)(F)F)c2)c1 [Example 663, 5-{3-[(E)-2-(4-fluoro-3-trifluoromethyl-phenyl)-vinyl]-phenyl}-3H-[1,2,3]triazole-4-carbonitrile]	−149.5	1250
N#Cc1[nH]nnc1-c1cccc(-c2cc(C(F)(F)F)ccn2)c1 [Example 790, 5-[3-(4-trifluoromethyl-pyridin-2-yl)-phenyl]-3H-[1,2,3]triazole-4-carbonitrile]	−61.5	980
Cc1cc(-c2ccc(C(F)(F)F)cn2)cc(-c2nn[nH]c2C#N)c1 [Example 807, 5-[3-methyl-5-(5-trifluoromethyl-pyridin-2-yl)-phenyl]-3H-[1,2,3]triazole-4-carbonitrile]	−94.5	1100
N#Cc1[nH]nnc1-c1cccc(-c2ccc3c(c2)OC(F)(F)O3)c1 [Example 931, 5-[3-(2,2-difluoro-benzo[1,3]dioxol-5-yl)-phenyl]-3H-[1,2,3]triazole-4-carbonitrile]	−76.4	690
N#Cc1[nH]nnc1-c1cc(OC(F)(F)F)cc(-c2ccc3c(c2)OC(F)(F)O3)c1 [Example 934, 5-[3-(2,2-difluoro-benzo[1,3]dioxol-5-yl)-5-trifluoromethoxy-phenyl]-3H-[1,2,3]triazole-4-carbonitrile]	−87.2	510
CCOc1cc(-c2nccc(C(F)(F)F)n2)cc(-c2nn[nH]c2C#N)c1 [Example 944, 5-[3-ethoxy-5-(4-trifluoromethyl-pyrimidin-2-yl)-phenyl]-38-[1,2,3]triazole-4-carbonitrile]	−125.1	1010
